Laboratory results: PMC12304826, “Redirecting the Peptide Cleavage Causes Protease Inactivation” (Angewandte Chemie (International Ed. in English), 2025)

Molecular target: T1, human cathepsin K (Homo sapiens, UniProt P43235)
T1 construct: purchased Enzo Life Sciences, Lörrach, Germany
T1 sequence (P43235 115-329): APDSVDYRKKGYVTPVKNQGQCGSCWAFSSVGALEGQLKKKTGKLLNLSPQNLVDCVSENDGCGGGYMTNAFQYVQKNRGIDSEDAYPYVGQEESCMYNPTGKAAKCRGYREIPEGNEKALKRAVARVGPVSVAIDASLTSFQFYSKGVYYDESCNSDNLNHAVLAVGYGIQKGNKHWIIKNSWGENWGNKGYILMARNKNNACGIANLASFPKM
Test: Cathepsin K inhibition assay (Cbz-Leu-Arg-AMC)
Type: biochemical
Details: 20 µM inhibitor, 60 min; read-out: Residual activity @ 20 µM (%) Cat K
Protocol: 1. Enzyme Inhibition Assays and Kinetic Data of Inhibition of Cathepsins B, L, K and S General. Human cathepsins were assayed either fluorimetrically or spectrophotometrically as noted below. The 10 mM inhibitor solutions were prepared in DMSO. The final concentration of DMSO in all assays was 2%. Non-linear regressions were conducted with GraFit 5. Residual cathepsin activity at an inhibitor concentration of 20 µM was determined from duplicate measurements based on the product formation after 60 min. Concentration dependent measurements were performed in duplicate measurements with five different inhibitor concentrations when the residual cathepsin activity in the presence of 20 µM inhibitor was below 70% (cathepsin B) or below 50% (cathepsins cathepsins L, K, and S). Progress curves were monitored for 60 min. First-order rate constants, kobs, were determined by non-linear regression following the equation [P] = vi × (1 – exp(-kobs × t))/kobs + d, where [P] is the product concentration, vi is the initial product formation rate, kobs is the observed first-order rate constant, and d is the offset. Mean values of kobs were plotted versus corresponding inhibitor concentrations [I], and second-order rate constants of inactivation, kinac/Ki, were obtained by linear regression. The equation kobs/[I] = (kinac/Ki)/(1 + [S]/Km) was used, where [S] is the substrate concentration and Km is the Michaelis-Menten constant. Standard errors (SE) refer to the linear regression. […] Cathepsin K inhibition assay.[1] Human recombinant cathepsin K (Enzo Life Sciences, Lörrach, Germany) was assayed fluorimetrically on a Monaco Safas spectrofluorometer flx or a Fluostar OPTIMA plate reader (BMG Labtech, Ortenberg, Germany). The wavelength for excitation was 360 nm and for emission 440 nm. The reactions were followed at 25 °C. A human cathepsin K stock solution of 23 µg/mL in 50 mM sodium acetate pH 5.5, 50 mM NaCl, 0.5 mM EDTA, 5 mM DTT was diluted 1:100 with assay buffer (100 mM sodium citrate pH 5.0, 100 mM NaCl, 1 mM EDTA, 0.01% CHAPS) containing 5 mM DTT and incubated for 30 min at 37 °C. A 10 mM stock solution of the 7-amino-4-methyl-coumarin (AMC)-based fluorogenic substrate Cbz-Leu-Arg-AMC was prepared in DMSO. The final concentration of the substrate was 40 μM (= 13.3 Km). When using the spectrofluorometer, into a cuvette containing 960 μL assay buffer, inhibitor solution and DMSO in a total volume of 16 μL, and 4 μL of the substrate solution were added and mixed. The reaction was initiated by adding 20 µL of the cathepsin K solution. When using the plate reader, into a well containing 192 µL assay buffer, inhibitor solution and DMSO in a total volume of 3.2 µL and 0.8 µL of the substrate solution were added and mixed. The reaction was initiated by adding 4 µL of the cathepsin K solution.
Cathepsin S inhibition assay.[2] […]
DTT, 0.5% Triton X-100 and 30% glycerol was diluted 1:100 with a 50 mM sodium phosphate buffer pH 6.5, 50 mM NaCl, 2 mM EDTA, 0.01% Triton X-100 and 5 mM DTT and incubated for 60 min at 37 °C. A 10 mM stock solution of the fluorogenic substrate Cbz-Phe-Arg-AMC was prepared in DMSO.
The assay was performed with a final substrate concentration of 40 µM (= 0.74 Km). When using the spectrofluorometer, into a cuvette containing 920 μL assay buffer, inhibitor solution and DMSO in a total volume of 16 μL, and 4 μL of the substrate solution were added and mixed. The reaction was initiated by adding 60 μL of the cathepsin S solution. When using the plate reader, into a well containing 188 µL assay buffer, inhibitor solution and DMSO in a total volume of 3.2 µL and 0.8 µL of the substrate solution were added and mixed. The reaction was initiated by adding […] of the cathepsin S solution.

CC(C)CC(C(=O)NC(Cc1ccccc1)C(=O)O)N(C)C(=O)Oc1ccc(Cl)cc1 (stereo not shown) [Compound 14]
remaining activity at 20 µM: 76%
